# Data reported in PubChem BioAssay AID602254 (Broad Institute, 2012).
# Active and inactive are the calls of the source.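 The calls were made as follows: active = fitted half-maximal concentration no higher than twice the top valid tested dose, with signal falling; inconclusive = flat curve with 30 to 70% inhibition, or poor fit; inactive = the rest.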
# Molecular target: Golgi-associated PDZ and coiled-coil motif-containing protein (Homo sapiens) (UniProt Q9HD26)
# Assay: blockers of CAL PDZ–TMR peptide complex – biochemical, fluorescence polarization, untagged CAL PDZ, cherry-pick, set 2, dose response (AID 602254);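 also: potency of inhibitors that displace the labelled peptide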
# Details: Purified CAL PDZ
row,AC50,Compound
1,> 120 µM (inactive),CN(C)S(=O)(=O)c1cccc(COc2ncnc3c(Cl)cc(Cl)cc23)c1
2,> 120 µM (inactive),CN(Cc1ccc(Cl)s1)C(=O)CNC(=O)CNC(=O)c1ccc(Cl)cc1Cl
3,> 120 µM (inactive),Cc1ccc(C)c(NC(=O)CN(C)C(=O)c2ccc3c(=O)n4c(nc3c2)CCC4)c1
4,> 120 µM (inactive),Cc1cccc(OCC(=O)OCC(=O)Nc2ccc(Cl)cn2)c1
5,> 120 µM (inactive),Cc1ccc2nc(COC(=O)c3ccc(Cl)nc3)cc(=O)n2c1
6,> 120 µM (inactive),CC(=O)N1CCc2cc(S(=O)(=O)NC(C(=O)NCc3ccccc3)C(C)C)ccc21 (centres undefined)

# The next lines start with the compound.
row,Compound,AC50
1,Cc1cc(NC(=O)c2c(Br)c(C)nn2C)no1,> 120 µM (inactive)
2,CCN(CC)CCn1c(=S)[nH]c2ccc(Br)cc2c1=O,> 120 µM (inactive)
3,Cc1cc(NC(=O)c2ccc(C#N)cc2)n(-c2ccccn2)n1,> 120 µM (inactive)
4,Cc1cc(F)ccc1NC(=O)c1cc(S(=O)(=O)N2CCCC2)cn1C,> 120 µM (inactive)
5,Cc1c(NS(=O)(=O)c2ccc(S(=O)(=O)c3ccccc3)s2)c(=O)n(-c2ccccc2)n1C,> 120 µM (inactive)
6,CCN(CC)c1ccc(N2C(=O)CSC2=S)cc1,> 120 µM (inactive)
7,COc1ccc(CC2CCOC2=O)cc1 (centres undefined),> 120 µM (inactive)
8,OCCC1CN(Cc2ccc3nsnc3c2)CCN1C1CCCCC1 (centres undefined),> 120 µM (inactive)
